Bridges are numbered along the chain shown (N, C = ends). Where no end group is shown, it is not given here.
How the values were obtained:
[1] = test system: K7M2 murine osteosarcoma cells; test: K7M2 in vitro migration; format: cell-based, mouse; details: Figure 4
Method: (§1) Migration was assayed in 24-well Transwell chambers (Corning Inc., Corning, NY) using inserts with an 8-µm pore membrane. Membranes were precoated with collagen (human collagen type I/III) and fibronectin (20 µg/mL each). […] After 16 h incubation, cells on the upper surface of the filter were removed using a cotton wool swab; migration of cells in migration media alone was compared with migration in media containing CXCL12. The cells were counted in ten different fields (original magnification ×40). The migration index was defined as the ratio between migrating cells in the experimental group and migrated cells in the control group. For the wound closure assay, tested cells were allowed to reach confluence in six-well plates containing serum-depleted growth medium and scratched with pipette tips to make wounds. The wound closure was observed microscopically 6 hours post-wounding (OKO Time Lapse).

[2] = test system: K7M2 murine osteosarcoma cells; test: K7M2 osteosarcoma lung metastases model; format: in vivo, Balb/c mice; details: cells pre-treated 30 min with 10 µM peptide; 10 mg/kg IP daily for 15 days
Method: (§2) All mice were obtained from Harlan (Bar Harbor, ME, USA) and their care was in accord with institutional guidelines. Twenty-five 6-8-week-old female C57BL/6 mice were inoculated into the tail vein with 5×10^5 B16–CXCR4 cells pre-treated for 30 minutes with peptide S (10 µM), peptide R (10 µM), peptide I (10 µM), or AMD3100 (10 µM). Six hours later intraperitoneal (IP) treatment started with AMD3100 (1.25 mg/kg) or each peptide (2 mg/kg) in sterile PBS once a day for 10 days. A week later the mice were sacrificed. The experiment was repeated three times. The lung metastases assay was also conducted with K7M2 murine osteosarcoma cells. Twenty-five 6-8-week-old female Balb/c mice were injected via tail vein with 2.5×10^5 K7M2 cells pre-treated for 30 minutes with AMD3100 (10 µM), peptide S (10 µM), peptide R (10 µM), peptide I (10 µM) and animals were treated IP daily for 15 days with 2.5 mg/kg for AMD3100 group and 10 mg/kg for each peptide groups. A week later the mice were sacrificed. Xenograft tumor growth was evaluated using pEGFP-SN12C cells in exponential growth phase subcutaneously injected into the right flank of twenty-five 6-8-week-old female CD1 nude mice. 2×10^6 SN12C-pEGFP were injected in the right flank of each mouse and treated with AMD3100 (1.25 mg/kg) and peptides (2 mg/kg) for 10 days ip. A week later mice were euthanized and tumor volume evaluated through Leica MacroFluo fluorescence stereomicroscope (Leica microsystem, Houston, TX). The experiment was repeated three times. The Istituto Nazionale per lo Studio e la Cura dei Tumori, Fondazione Giovanni Pascale Independent Etical Comettee approved the study (CEI/600/12).
Figure 4 Peptides R, I and S inhibit murine osteosarcoma lung metastases. (A) Twenty-five 6-8-week-old female Balb/c mice were injected via tail vein with 2.5×10^5 K7M2 cells pre-treated for 30 minutes with AMD3100 (10 µM), peptide R (10 µM), or peptide I (10 µM) or peptide S (10 µM). […]

[3] = test system: SN12C-EGFP renal cancer cells; test: SN12C-pEGFP subcutaneous xenograft tumor growth; format: in vivo, CD1 nude mice; details: IP 10 days, peptides 2 mg/kg, AMD3100 1.25 mg/kg; measured a week later by fluorescence stereomicroscope; control 65.97±35.1; average
Method: as §2
6 to 8-week-old female CD1 nude mice were injected subcutaneously with 2×10^6 pEGFP-SN12C cells pre-treated with 10 µM AMD3100 or 10 µM of each peptide. Beginning the following day mice were further treated intraperitoneally for 10 days with 1.25 mg/kg AMD3100 or 2 mg/kg of peptides R, I or S. A week later mice were euthanized and tumor volume evaluated directly from the flank of mice using a Leica MacroFluo fluorescence stereomicroscope (Leica microsystem, Houston, TX) (A). The experiments were repeated three times. B. SN12C-PEGFP cells migration toward CXCL12 in the presence of AMD3100 or Peptide R, S and I.

CXCR7 = test: Anti-CXCR7 antibody (clone 11G8) binding in CXCR7 overexpressing cells; set-up: species or system human; details: MCF-7 cells; peptides 10 µM, CXCL11 100 nM, 30 min pre-incubation; Figure S3
Method: [The procedure below names another target; the source says it served here with some conditions changed.] CXCR4 binding was evaluated as previously described. Briefly 5×10^5 CCRF–CEM cells were pre-incubated with 10 µM peptides or AMD3100 in binding buffer (PBS 1× plus 0.2% BSA and 0.1% NaN3) for 30 minutes at 37°C, 5% CO2 and then labeled for 30 minutes with anti-CXCR4 PE-antibody (FAB170P, clone 12G5, R&D Systems, Minneapolis, MN, USA). The cells were analyzed by FACS Canto II cytofluorometer (Becton Dickinson Immunocytometry Systems, Mountain View, CA, USA).
Fluo-3AM and Pluronic acid were added to each sample to increase Fluo-3AM solubility and improve dye loading into the cells. (TIF) Click here for additional data file.

[4] = test system: PES43 human melanoma cells; test: CXCL12-mediated wound closure assay; format: cell-based; details: 6 hours post-wounding
Method: as §1
Experiments were conducted using PES43 cells. (A) Migration was assayed in 24-well Transwell chambers using inserts with 8-µm pore membrane. […] Migrated cells on the lower surface were fixed, stained with H&E and counted microscopically. The results are expressed as the migration index relative to migration in presence of BSA alone. […] Images were acquired with OKO Time Lapse. […] PES43 cells were serum-starved and incubated with CXCL12 (100 ng/ml) alone or in presence of AMD3100/peptides. Each peptide was tested in at least three different experiments. Double tailed T-Test was used for statistical analyses. Differences were considered significant at P<0.05 compared to control.

[5] = test system: B16-CXCR4 murine melanoma cells; test: B16-CXCR4 melanoma lung metastases model; format: in vivo, C57BL/6 mice; details: cells pre-treated 30 min with 10 µM, IP once a day for 10 days, peptides 2 mg/kg, AMD3100 1.25 mg/kg; for number of lung metastases: control 8.4±3.49, average
Method: as §2
(A) B16-CXCR4 tumor cells pre-treated for 30 minutes with AMD3100 (10 µM), peptide R (10 µM), peptide I (10 µM), or peptide S (10 µM) were inoculated into the tail vein of C57/B female mice and the mice were further treated intraperitoneally for 10 days with 1.25 mg/kg AMD3100, or 2 mg/kg peptide R, peptide I or peptide S. Gross examination of representative lungs; (B) Graphical representation of the number of lung metastases in treated mice. Double tailed T-Test was used for statistical analyses. The experiments were repeated three times.

| Substance | K7M2 in vitro migration [1] | K7M2 lung metastases [2] | tumor volume of SN12C-GFP xenograft [3] [mm^3] | binding to CXCR7 (anti-CXCR7 antibody) (CXCR7) | CXCL12-mediated wound healing [4] | number of lung metastases [5] | fold reduction of the number of lung metastases vs control [5] [fold] |
| --- | --- | --- | --- | --- | --- | --- | --- |
| Arg-Ala-[Cys-Arg-His-Trp-Cys] (RACRHWC; disulfide 3-7) [Peptide S, CXCL12-mimetic disulfide-cyclic peptide] | reduced | reduced lung metastases | 44.51±26.4 | unaffected | delayed | 2.96±2.39 | – |
| Arg-Ala-[Cys-Arg-Phe-Phe-Cys] (RACRFFC; disulfide 3-7) [Peptide R, CXCL12-mimetic disulfide-cyclic peptide] | reduced | reduced lung metastases | 47.00±16.88 | unaffected | delayed | 1.2±1.4 | 7 |
| [Cys-Trp-His-Arg-Cys] (CWHRC; disulfide 1-5) [Peptide I, v-MIP-II mimetic disulfide-cyclic peptide] | reduced | reduced lung metastases | 39.19±25.8 | unaffected | delayed | 0.2±0.44 | 41.5 |

Reference: article PMC3772838, “Preclinical Development of a Novel Class of CXCR4 Antagonist Impairing Solid Tumors Growth and Metastases” (PLoS ONE, 2013)
